This is an account of results in US9303017B2, “2,5-disubstituted-pyridyl nicotinic ligands, and methods of use thereof” (Georgetown University, priority 2011, dated 2016).

For experiment [1], the system named is alcohol preferring rats (P rats). Nature of the experiment: Alcohol intake in alcohol preferring rats. The format is in vivo, rat. The procedure: In Vivo Effects on Alcohol Intake in Rats. In our initial behavioral studies in an animal model, effects of compound (S)-15 (Scheme 1, YL-1-127) on alcohol self-administration in alcohol preferring rats (P rats) were assessed. Three doses of (S)-15 were tested: 0.33, 1 and 3 mg/kg (s.c.).
General Procedures for Effect on Alcohol Intake in Rats. Adult male rats obtained from a colony of selectively-bred alcohol preferring rats (P rats) maintained at Indiana University School of Medicine. Rats were housed in cages that were fitted with two 100 mL Richter tubes for the recording of water and alcohol intake. Animals were kept under a constant room temperature of 22±1° C. and 12:12 light-dark cycle (7:00 a.m.-7:00 p.m. dark). Animals were fed 5001 Rodent Chow (Lab Diet, Brentwood, Mo., USA). All procedures were approved by the IACUC at Duke University Medical Center.
After a week of handling and habituation, rats were given free access to water in a graduated Richter tube for 1 day. Next, they were given free access only to a solution of 10% (v/v) alcohol for 3 consecutive days. Thereafter, rats were given free access to water and a solution of alcohol throughout the study. Water and alcohol intake were indexed by graduated Richter drinking tubes.
An acute study was conducted to determine a dose-response for compound (S)-15 (YL-1-127). After the establishment of a stable baseline for alcohol and water intake rats were injected subcutaneously with 0.33, 1 and 3 mg/kg of YL-1-127 or the same volume of the vehicle ([…]). Alcohol and water intake were measured at, 2, 4, 6 and 24 hr after the drug administration. The preference for alcohol solution, [(alcohol volume)/(alcohol+water volume)×100], was calculated for the same time points as alcohol and water intake. All animals (n=18) received all treatments following a crossover design with random assignment. The interval between injections was at least 3 days.
Solution of 10% (v/v) alcohol was prepared twice weekly from a solution of […] mixed with tap water. Solutions of YL-1-127 was prepared weekly in 100 mM HCl solution and isotonic saline and was injected subcutaneously in a volume of 1 mL/kg.
The data were assessed by the analysis of variance with a between subjects factor of strain and a repeated measures factor of YL-1-127 dose. Significance was determined at p

The next experiment addresses α3β4 nAChR (Rattus norvegicus (Rat), UniProt P04757+P12392). Nature of the experiment: [3H]-epibatidine competition binding, α3β4. The settings on record: Table 1; mean of 3 to 5 measurements. The procedure: In Vitro Binding Affinities for nAChR Subtypes. […] To determine selectivities of these compounds in binding assays among the three predominant nAChR subtypes, α3β4, α4β2 and α7, the ratios of Ki values (α3β4/α4β2 and α7/α4β2) were determined.
Cell Lines and Cell Culture. The cell lines expressing defined rat nAChR subtypes were established previously by stably transfecting HEK 293 cells with rat nAChR subunit genes. The cell line expressing human α4β2 nAChRs, YXα4β2H1, was established recently. These cell lines were maintained in minimum essential medium (MEM) supplemented with 10% fetal bovine serum, 100 units/mL penicillin G, […] and selective antibiotics at 37° C. with 5% CO2 in a humidified incubator. Fetal bovine serum was provided by Gemini Bio-Products (Woodland, Calif.). Tissue culture medium and antibiotics were obtained from Invitrogen Corporation (Carlsbad, Calif.), unless otherwise stated.
Briefly, cultured cells at >80% confluence were removed from their flasks (80 cm^2) with a disposable cell scraper and placed in 10 mL of 50 mM Tris.HCl buffer (pH 7.4, 4° C.). The cell suspension was centrifuged at 10,000×g for 5 min and the pellet was collected. The cell pellet was then homogenized in 10 mL buffer with a polytron homogenizer and centrifuged at 36,000 g for 10 min at 4° C. The membrane pellet was resuspended in fresh buffer, and aliquots of the membrane preparation were used for binding assays. […] Bound and free ligands were separated by vacuum filtration through Whatman GF/C filters treated with 0.5% polyethylenimine. The filter-retained radioactivity was measured by liquid scintillation counting. Specific binding was defined as the difference between total binding and nonspecific binding. Data from competition binding assays were analyzed using Prism 5 (GraphPad Software, San Diego, Calif.).
Pharmacological Properties. We measured the in vitro binding affinities of the ligands for defined receptor subtypes (α2β2, α2β4, α3β2, α3β4, α4β2, α4β4, α6β2, α6β4, and α7) expressed in stably transfected cell lines. […] Rat forebrain homogenates were included to allow comparison between the heterologous and native α4β2 and α7 nAChRs. See Table 1 for binding affinity values (Ki) of the ligands at the three major nAChR subtypes (α3β4. α4β2 and α7).

Chain of α3β4 nAChR (P04757 26-499): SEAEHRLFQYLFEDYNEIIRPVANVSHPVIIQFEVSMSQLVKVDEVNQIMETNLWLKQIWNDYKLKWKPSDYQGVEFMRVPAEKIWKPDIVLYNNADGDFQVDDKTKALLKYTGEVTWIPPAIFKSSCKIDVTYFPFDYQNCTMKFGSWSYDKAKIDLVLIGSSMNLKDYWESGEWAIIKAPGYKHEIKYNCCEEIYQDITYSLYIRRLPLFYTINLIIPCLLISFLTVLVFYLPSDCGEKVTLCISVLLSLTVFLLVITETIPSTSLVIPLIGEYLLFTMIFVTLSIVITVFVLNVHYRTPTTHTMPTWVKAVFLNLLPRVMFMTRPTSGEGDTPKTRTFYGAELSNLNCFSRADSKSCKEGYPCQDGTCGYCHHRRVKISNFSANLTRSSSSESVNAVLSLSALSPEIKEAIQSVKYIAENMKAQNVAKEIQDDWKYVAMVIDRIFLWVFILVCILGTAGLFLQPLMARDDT
Chain of α3β4 nAChR (P12392 21-495): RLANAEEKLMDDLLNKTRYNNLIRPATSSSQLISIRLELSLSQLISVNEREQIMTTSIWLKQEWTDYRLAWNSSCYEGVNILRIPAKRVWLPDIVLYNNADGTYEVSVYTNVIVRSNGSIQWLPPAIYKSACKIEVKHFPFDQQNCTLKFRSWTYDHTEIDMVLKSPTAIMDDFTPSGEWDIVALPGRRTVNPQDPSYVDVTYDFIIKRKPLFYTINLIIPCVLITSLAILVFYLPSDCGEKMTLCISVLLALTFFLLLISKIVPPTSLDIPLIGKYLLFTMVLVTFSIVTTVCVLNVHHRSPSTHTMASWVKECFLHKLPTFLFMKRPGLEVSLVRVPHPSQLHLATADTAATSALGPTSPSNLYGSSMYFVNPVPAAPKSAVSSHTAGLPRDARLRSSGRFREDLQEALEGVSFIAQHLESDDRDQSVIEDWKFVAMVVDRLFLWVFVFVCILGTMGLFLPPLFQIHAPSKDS

Take `CCCCC#Cc1cnc(C)c(OC[C@@H]2CCN2)c1` [(S)-15, (S)-3-(azetidin-2-ylmethoxy)-5-(hex-1-ynyl)-2-methylpyridine]: the alcohol intake result in experiment [1] (1 mg/kg s.c., 24 h, p<0.05) was “reduced alcohol intake significantly”; in experiment [1] (3 mg/kg s.c., 6 h, p<0.05), “significant effects”; in experiment [1] (3 mg/kg s.c., 24 h, p<0.0005), “significant effects”; in experiment [1] (0.33, 1 and 3 mg/kg s.c., compared with control vehicle), “significantly reduced alcohol intake in a dose dependent manner”. On α3β4 nAChR, this compound yielded an inhibition constant Ki of 230 µM.

Usually Ki stands for a measure of affinity in units of concentration, obtained from inhibition or displacement. A higher Ki goes with lower affinity.
